Earlier results in article PMC8018653, “Gender-based differences in brain and plasma pharmacokinetics of letrozole in sprague-dawley rats: Application of physiologically-based pharmacokinetic modeling to gain quantitative insights” (PLoS ONE, 2021).

System: P-glycoprotein (P-gp)
Conditions: cited from earlier work

CC(C)(C#N)c1cc(Cn2cncn2)cc(C(C)(C)C#N)c1 [anastrozole]
substrate for the efflux transporter P-glycoprotein (P-gp): substrate
